Data on one compound can be found in US12486300B2, “Mithramycin oxime derivatives having increased selectivity and anti-cancer activity” (University of Kentucky Research Foundation, priority 2018, dated 2025).

Series [1] has as its system TC-32 cells (EWS-FLI1+) subcutaneously implanted. Nature of the series: Efficacy studies in mouse xenografts (TC-32). To be noted: for Significant? survival vs. Vehicle: overall significance level 0.05. It is filed as in vivo, mice. Here is the method: Efficacy studies in mouse xenografts. TC-32 cells were suspended in 1:1 (v/v) media: Matrigel on ice and injected subcutaneously into the flank of female immunocompromised athymic nude NU/NU mice at a density of 1.0×10^6 cells per 100 μL. Mice with tumors of at least 75 mm^3 were randomly assigned to treatment groups, n=8-12 mice per group and n=6-10 mice per vehicle control treated group. Tumor volumes were monitored every 2-3 days and mice were euthanized once tumor volumes reached 1500 mm^3. In some experiments, tumors were allowed to grow to 20 mm in one direction prior to animals being removed from the study. Average tumor volume among the replicates were plotted, as well as survival plots, using GraphPad Prism 7.03 software. All animal studies were conducted under approved institutional animal care and use committee (IACUC) protocol.
Reference is made to FIGS. 3A-3G, which include data from an efficacy study involving exemplary compound MTM (20). TC-32 cells (EWS-FLI1+) were subcutaneously implanted in female NU/NU mice. Gray shadding starting at 0 days. indicates dosing window. FIG. 3B includes MTM20 at 21 mg/kg, FIG. 3C includes MTM20 at 15 mg/kg, FIG. 3D includes vehicle (control), FIG. 3E includes MTM (control) at 1 mg/kg, and FIG. 3F includes MTM (contro) at 0.65 mg/kg. Dosing route: IV bolus; Schedule: q2d×8.
Reference is made to FIGS. 4A and 4B, and Table 2, which include data from an efficacy/survival study involving exemplary compound MTM(20). TC-32 cells (EWS-FLI1+) were subcutaneously implanted in female NU/NU mice. FIG. 4A includes survival curves and FIG. 4B includes median survival plots of mice (n=6-7/group).
Further Efficacy Studies. Additional efficacy studies are ongoing with MTM20 at a daily schedule (total of 5 doses).
In comparison, nine of 10 tumor volumes, in the control group have increased by 50% or more and one increased approximately 15% above baseline.
In comparison all tumors in the control group grow by 30% or more relative to baseline.

A short description of series [2]: Hematology profile in monkeys. The note with it: IV bolus 15 mg/kg. Here is the method: Reference is made to FIGS. 7A-7F, which include include data for a hematology profile in monkeys. MTM and MTM20 were dosed as an IV bolus injection (10 mg/kg and 15 mg/kg) in two monkeys each to assess toxicity. […] Gray areas are reference values.
The target in the next series is T1, EWS-FLI1 (Homo sapiens, UniProt Q01543+Q01844).
T1 sequence (Q01543 276-373 limits assumed): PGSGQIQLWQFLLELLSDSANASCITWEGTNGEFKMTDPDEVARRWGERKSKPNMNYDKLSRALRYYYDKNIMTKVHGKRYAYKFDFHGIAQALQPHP
To be noted: Grohar et al. 2011; cited from earlier work.

As to `CO[C@H](C(=O)[C@@H](O)[C@@H](C)O)[C@@H]1Cc2cc3cc(O[C@H]4C[C@@H](O[C@H]5C[C@@H](O)[C@H](O)[C@@H](C)O5)[C@H](O)[C@@H](C)O4)c(C)c(O)c3c(O)c2C(=O)[C@H]1O[C@H]1C[C@@H](O[C@H]2C[C@@H](O[C@H]3C[C@](C)(O)[C@H](O)[C@@H](C)O3)[C@@H](O)[C@@H](C)O2)[C@H](O)[C@@H](C)O1` [MTM, Mithramycin], in series [1] (MTM - MTD vs. MTM - 2/3MTD), the “Significant? survival” value is on record as “No”. The “Significant? survival vs. Vehicle” value in series [1] (at 2/3MTD) and in series [1] (at MTD) was “No” in each case. Also, the platelets counts result in series [2] was “significant reduction in platelets counts”. Besides, the “potency as inhibitor of EWS-FLI1 in Ewing sarcoma cells” value on EWS-FLI1 is given as “low-nM”.
